Measurements from patent US7629371B2, “Cosmetic use of a composition containing at least one oxazoline, serving as an active substance, as a slimming product and/or for preventing and/or treating cellulite” (Laboratoires Expanscience, priority 2003, dated 2009).

Assays:
normal human adipocytes [1] = assay: Evaluation of lipid synthesis in adipocytes in suspension (Example 7): incorporation of radiolabelled acetate into lipids; type: cell-based; conditions: for decrease of the incorporation of acetate into lipids, % of the control: FIG. 2
Description: A solution of OX100 (10^−2 M in DMSO) was tested.
Culture Conditions: They are identical to those of example 6.
The adipocytes in suspension are incubated for 1 h at 37° C. in the presence of various concentrations of OX100 (10, 20 and 100 μMO). A volume of 10 ml of radiolabelled acetate (2-C^14, 60.87 μCi/ml, Amersham) is subsequently added to the preparation. After incubation for 4 h, the lipids are extracted according to the procedure described by Bligh and Dyer (methanol/chloroform/water), and evaporated under nitrogen, and the radioactivity incorporated is quantified by liquid scintillation (Rackbeta LKB 1210).

normal human adipocytes [2] = assay: Evaluation of lipid synthesis in adipocytes in suspension (Example 6): incorporation of radiolabelled acetate into lipids; type: cell-based; conditions: for decrease of the incorporation of acetate, % of the control: FIG. 1
Description: A solution of OX100, diluted to a concentration of 10^−2 M in DMSO, was tested.
Normal human adipocytes were isolated from abdominal biopsies (plastic surgery). Immediately after they have been received, the samples are incubated for 30 minutes at 37° C. in the presence of collagenase (supplied by the company Sigma). The adipocyte suspension is subsequently rinsed and diluted three times in the culture medium. The culture medium consists of: • 1.87 mg/ml bicarbonate (supplied by the company Life Technologies), • 25 IU/ml/25 μg/ml of penicillin/streptomycin (supplied by the company Life Technologies), • 2 mM of glutamine (supplied by the company Life Technologies), • 100% v/v of MEM (supplied by the company Merck Eurolab), and • 0.5% w/v of albumin of bovine origin (supplied by the company Sigma). Evaluation of Lipid Synthesis
The adipocytes in suspension are incubated for 1 hour at 37° C. in the presence of various concentrations of OX100. The OX100 concentrations tested are 20 μM, 4 μM and 0.8 μM.
A volume of 10 ml of radiolabelled acetate (2-C^14, 60.87 μCi/ml, supplied by the company Amersham) is subsequently added to the preparation.
After incubation for 4 hours, the lipids are extracted according to the procedure described by Bligh and Dyer, Can J Biochem Physiol, 37, 922, (1959), (methanol/chloroform/water), and evaporated under nitrogen, and the radioactivity incorporated is quantified by liquid scintillation (liquid scintillation device reference LKB 1210, supplied by the company Rackbeta).
The possible interaction between the radiolabelled acetate and the OX100 was evaluated in order to confirm the specificity of labeling, by incubating the highest concentration of OX100 (20 μM) with acetate alone.

[3] = tested at 10 μM, 1 h preincubation, 4 h with 2-C14 acetate

| Structure (SMILES) | decrease of the incorporation of acetate into lipids, % of the control (normal human adipocytes [1]; OX100 at 10 μM) [%] | decrease of the incorporation of acetate into lipids, % of the control (normal human adipocytes [1]; OX100 at 20 μM) [%] | decrease of the incorporation of acetate into lipids, % of the control (normal human adipocytes [1]; OX100 at 100 μM) [%] | inhibitory activity on lipid synthesis (in words) (normal human adipocytes [1]; human adipocytes in culture) | inhibition of lipogenesis in human adipocytes (in words) (normal human adipocytes [2]) | decrease of the incorporation of acetate, % of the control (normal human adipocytes [2]; OX100 at 4 μM, 4 h with 2-C14 acetate) [%] | decrease of the incorporation of acetate, % of the control (normal human adipocytes [2]; OX100 at 20 μM, 4 h with 2-C14 acetate) [%] | inhibition of the incorporation of acetate (inhibition/control) (normal human adipocytes [1]; [3]) [%] | inhibition of the incorporation of acetate (inhibition/control) (normal human adipocytes [2]; [3]) [%] |
| --- | --- | --- | --- | --- | --- | --- | --- | --- | --- |
| CCCCCCCCCCCC1=NC(C)(C)CO1 [OX100, 2-undecyl-4,4-dimethyl-1,3-oxazoline] | 35 | 38 | 39 | significant inhibitory activity | capable of inhibiting lipogenesis | 25 | 31 |  |  |
| C/C=C/C/C=C/CCC(=O)[C@H]1O[C@H]1C(N)=O [ceruline, reference compound] |  |  |  |  |  |  |  | 75 | 95 |
